Measurements taken from US12268690B2, “Treatments for mutations in acute myeloid leukemia” (OREGON HEALTH & SCIENCE UNIVERSITY, priority 2018, dated 2025).

Test system: freshly isolated mononuclear cells from AML samples
Assay: Ex vivo functional drug screen (MTS viability, AUC) on primary AML samples, compared by mutation or clinical group
Type: cell-based, human
Source text: This panel contained graded concentrations of a drugs with activity against two-thirds of the tyrosine kinome as well as other non-tyrosine kinase pathways, including MAPKs, PI3K/AKT/mTOR, AMPK, ATM, Aurora kinases, CAMKs, CDKs, GSK3a/b, IκK, PKA, PKC, PLK1, and RAF. In addition, the library contained small molecule inhibitors with activity against the BCL2 family, BRD4, Hedgehog, HSP90, NOTCH/gamma-secretase, proteasome, survivin, STAT3, and WNT/beta-catenin. Drug sensitivity patterns were analyzed with respect to clinical and genetic features of tumors. We compared the average area-under-the curve (AUC) values for each drug between the de novo and transformed samples via a series of single factor ANOVAs. […] In addition, we analyzed the concordance of drug sensitivity patterns with respect to predicted target gene, gene family, or pathway for each drug. […] To create a global view of overall sensitivity or resistance of each case, we generated a heatmap of binary sensitive/resistant calls for each sample to each drug.
Correlation of drug sensitivity with mutational events was performed by assessing the range of sensitivity of cases with mutation of an individual gene (as well as co-occurring mutational events) versus cases with wild type sequence for that same gene. […] The difference in average drug sensitivity of mutant versus wild type cases for each drug/mutation pair was plotted on the horizontal axis of a volcano plot with a test for statistical significance of the comparison plotted on the vertical axis (corrected for multiple comparison false discovery rate^42; FIG. 4). […] To aid in discovery of potential mutational biomarkers of drug sensitivity, we plotted volcano plots that were specific to each individual drug (versus all possible mutational events) and for each individual gene (versus all possible drugs tested).
Ex vivo drug screens were performed on freshly isolated mononuclear cells from AML samples as previously described^41.
Ex vivo functional drug screens were performed on freshly isolated mononuclear cells from AML samples. […] Drug plates were created using inhibitors purchased from LC Laboratories and Selleck Chemicals and master stocks were reconstituted in DMSO and stored at −80° C. […] DMSO control wells and positive control wells containing a drug combination of Flavopiridol, Staurosporine and Velcade were placed on each plate, with the final concentration of DMSO ≤0.1% in all wells. Daughter plates were created using a V&P Scientific 384-well pin tool head operated by the Caliper Sciclone ALH 3000 and equipped with 0.457 mm diameter, 30 nanoliter, slotted stainless steel pins (cat num: FP1NS30). Daughter and destination plates were sealed with pealable thermal seals using a PlateLoc thermal sealer. Destination plates were stored at −20° C. for no more than three months and thawed immediately before use. Primary mononuclear cells were plated across single-agent inhibitor panels within 24 h of collection. […] After 3 d of culture at 37° C. in 5% CO2, MTS reagent (CellTiter96 AQueous One; Promega) was added, optical density was measured at 490 nm, and raw absorbance values were adjusted to a reference blank value and then used to determine cell viability (normalized to untreated control wells).
A given sample was run on one or more panels and within each panel, the majority of drugs were run without within-panel replicates. […] An additional set of ‘curve-free’ AUCs was computed for sample-inhibitor pairs run on multiple panels.
Based on the methodology used in our prior drug combination study^36, a probit regression was fit to all possible run groups using the model: (normalized_viability/100)˜1+log 10(concentration) Where for all groups there were N=7 dose-response measurements. The summary measures of curve fit were inspected and cutoffs were devised removing all runs with an AIC >12 and deviance >2.

Cn1c2ccccc2c2c3c(c4c5ccccc5n(CCC#N)c4c21)CNC3=O [Go6976]
drug sensitivity mutant vs wild type (average difference in AUC; top left quadrant of volcano plot) (CBFB.MYH11): Go6976

CC(C)n1nc(-c2ccc3oc(N)nc3c2)c2c(N)ncnc21 [INK-128]
drug sensitivity mutant vs wild type (average difference in AUC; top left quadrant of volcano plot) (FLT3_ITD): INK-128 | drug sensitivity mutant vs wild type (average difference in AUC; top left quadrant of volcano plot) (NPM1:FLT3_ITD): ink-128

Nc1nc(Nc2ccc(S(N)(=O)=O)cc2)nn1C(=O)c1c(F)cccc1F [JNJ-7706621, 4-((5-amino-1-(2,6-difluorobenzoyl)-1H-1,2,4-triazol-3-yl)amino)benzenesulfonamide]
drug sensitivity mutant vs wild type (average difference in AUC; top left quadrant of volcano plot) (NPM1:DNMT3A): JNJ-7706621 | drug sensitivity mutant vs wild type (average difference in AUC; top left quadrant of volcano plot) (NPM1:IDH1): JNJ-7706621

Cn1cc(-c2ccc3nnc(C(F)(F)c4ccc5ncccc5c4)n3n2)cn1 [JNJ-38877605]
drug sensitivity mutant vs wild type (average difference in AUC; top left quadrant of volcano plot) (BCOR:RUNX1): JNJ-38877605

COc1cc(Oc2ccnc3cc(OC)c(OC)cc23)ccc1NC(=O)NC(C)c1nccs1 (stereo not drawn) [KI20227]
drug sensitivity mutant vs wild type (average difference in AUC; top left quadrant of volcano plot) (NPM1:SRSF2:IDH2): KI20227

O=c1cc(-c2cccc3c2Sc2ccccc2S3)oc(N2CCOCC2)c1 [KU-55933]
drug sensitivity mutant vs wild type (average difference in AUC; top left quadrant of volcano plot) (ZRSR2): KU-55933

CS(=O)(=O)CCNCc1ccc(-c2ccc3ncnc(Nc4ccc(OCc5cccc(F)c5)c(Cl)c4)c3c2)o1 [Lapatinib]
drug sensitivity mutant vs wild type (average difference in AUC; top left quadrant of volcano plot) (FLT3_ITD_IHD2): lapitinib | drug sensitivity mutant vs wild type (average difference in AUC; top left quadrant of volcano plot) (NPM1): Lapatinib | drug sensitivity mutant vs wild type (average difference in AUC; top left quadrant of volcano plot) (NPM1:FLT3_ITD): lapatinib | drug sensitivity mutant vs wild type (average difference in AUC; top left quadrant of volcano plot) (NPM1:IDH2): Lapatinib | drug sensitivity mutant vs wild type (average difference in AUC; top left quadrant of volcano plot) (NPM1:SRSF2): Lapatinib | drug sensitivity mutant vs wild type (average difference in AUC; top left quadrant of volcano plot) (SMC1A): lapatinib

Nc1cccc2c1CN(C1CCC(=O)NC1=O)C2=O (stereo not drawn) [Lenalidomide]
drug sensitivity mutant vs wild type (average difference in AUC; top left quadrant of volcano plot) (NPM1): Lenalidomide | drug sensitivity mutant vs wild type (average difference in AUC; top left quadrant of volcano plot) (NPM1:SRSF2): lenalidomide

COc1cc2nccc(Oc3ccc(NC(=O)NC4CC4)c(Cl)c3)c2cc1C(N)=O [Lenvatinib]
drug sensitivity mutant vs wild type (average difference in AUC; top left quadrant of volcano plot) (DNMT3A): Lenvatinib | drug sensitivity mutant vs wild type (average difference in AUC; top left quadrant of volcano plot) (FLT3_ITD): lanvatinib | drug sensitivity mutant vs wild type (average difference in AUC; top left quadrant of volcano plot) (IDH2): Lenvatinib | drug sensitivity mutant vs wild type (average difference in AUC; top left quadrant of volcano plot) (NPM1): Levatinib | drug sensitivity mutant vs wild type (average difference in AUC; top left quadrant of volcano plot) (NPM1:DNMT3A): Lenvatinib | drug sensitivity mutant vs wild type (average difference in AUC; top left quadrant of volcano plot) (NPM1:DNMT3A:FLT3): lenvantinib | drug sensitivity mutant vs wild type (average difference in AUC; top left quadrant of volcano plot) (NPM1:FLT3_ITD): lenvatinib | drug sensitivity mutant vs wild type (average difference in AUC; top left quadrant of volcano plot) (NPM1:IDH2): lenvatinib | drug sensitivity mutant vs wild type (average difference in AUC; top left quadrant of volcano plot) (NPM1:SRSF2): lenvatinib | drug sensitivity mutant vs wild type (average difference in AUC; top left quadrant of volcano plot) (NPM1:TET2: DNMT3A): Lenvatinib

NC1(c2ccc(-c3nc4ccn5c(=O)[nH]nc5c4cc3-c3ccccc3)cc2)CCC1 [MK-2206]
drug sensitivity mutant vs wild type (average difference in AUC; top left quadrant of volcano plot) (WT1): MK-2206

COc1c(Cl)cc2c([nH]c3cnccc32)c1NC(=O)c1cccnc1C [MLN120B]
drug sensitivity mutant vs wild type (average difference in AUC; top left quadrant of volcano plot) (NPM1:IDH2): MLN120B | drug sensitivity mutant vs wild type (average difference in AUC; top left quadrant of volcano plot) (NPM1:SRSF2): MLN120B

Cc1ccc(NC(=O)c2ccc(CN3CCN(C)CC3)cc2)cc1Nc1nc(-c2cccnc2)cs1 [Masitinib]
drug sensitivity mutant vs wild type (average difference in AUC; top left quadrant of volcano plot) (FLT3_ITD:TET2): masitinb | drug sensitivity mutant vs wild type (average difference in AUC; top left quadrant of volcano plot) (FLT3_ITD_IHD2): masitinib | drug sensitivity mutant vs wild type (average difference in AUC; top left quadrant of volcano plot) (IDH2): Masitinib | drug sensitivity mutant vs wild type (average difference in AUC; top left quadrant of volcano plot) (NPM1:SRSF2): Masitinb | drug sensitivity mutant vs wild type (average difference in AUC; top left quadrant of volcano plot) (SMC1A): Masitinib

COc1cc(N2CCC(N3CCN(C)CC3)CC2)ccc1Nc1ncc(Cl)c(Nc2ccccc2S(=O)(=O)C(C)C)n1 [NVP-TAE684]
drug sensitivity mutant vs wild type (average difference in AUC; top left quadrant of volcano plot) (FLT3_ITD): NVP-TAE684 | drug sensitivity mutant vs wild type (average difference in AUC; top left quadrant of volcano plot) (FLT3_ITD:DNMT3A): NVP-TAE684 | drug sensitivity mutant vs wild type (average difference in AUC; top left quadrant of volcano plot) (FLT3_ITD:FLT3): nvp-TAE684 | drug sensitivity mutant vs wild type (average difference in AUC; top left quadrant of volcano plot) (FLT3_ITD:RUNX1): nvp-TAE684 | drug sensitivity mutant vs wild type (average difference in AUC; top left quadrant of volcano plot) (FLT3_ITD:TET2): nvp-tae684 | drug sensitivity mutant vs wild type (average difference in AUC; top left quadrant of volcano plot) (FLT3_ITD_IHD2): Nvp-TAE684 | drug sensitivity mutant vs wild type (average difference in AUC; top left quadrant of volcano plot) (IDH2): NVP-TAE684 | drug sensitivity mutant vs wild type (average difference in AUC; top left quadrant of volcano plot) (IDH2:FLT3): NVP-TAE684 | drug sensitivity mutant vs wild type (average difference in AUC; top left quadrant of volcano plot) (NPM1): NVP-TAE684 | drug sensitivity mutant vs wild type (average difference in AUC; top left quadrant of volcano plot) (NPM1:FLT3): NVP-TAE684 | drug sensitivity mutant vs wild type (average difference in AUC; top left quadrant of volcano plot) (NPM1:FLT3_ITD): nvp-tae684 | drug sensitivity mutant vs wild type (average difference in AUC; top left quadrant of volcano plot) (NPM1:FLT3_ITD:DNMT3A): NVP-TAE684 | drug sensitivity mutant vs wild type (average difference in AUC; top left quadrant of volcano plot) (NPM1:IDH2): NVP-TAE684 | drug sensitivity mutant vs wild type (average difference in AUC; top left quadrant of volcano plot) (NPM1:SRSF2): nvp-TAE684 | drug sensitivity mutant vs wild type (average difference in AUC; top left quadrant of volcano plot) (NPM1:SRSF2:IDH2): NVP-

Cc1[nH]c(/C=C2\C(=O)Nc3ccc(S(=O)(=O)Cc4c(Cl)cccc4Cl)cc32)c(C)c1C(=O)N1CCC[C@@H]1CN1CCCC1 [PHA-665752]
drug sensitivity mutant vs wild type (average difference in AUC; top left quadrant of volcano plot) (IDH2): PHA-665752

CCCS(=O)(=O)Nc1ccc(F)c(C(=O)c2c[nH]c3ncc(Cl)cc23)c1F [PLX-4720, N-(3-(5-chloro-1H-pyrrolo[2,3-b]pyridine-3-carbonyl)-2,4-difluorophenyl)propane-1-sulfonamide]
drug sensitivity mutant vs wild type (average difference in AUC; top left quadrant of volcano plot) (CBFB.MYH11): PLX-4720

NC(=O)c1cnc(N[C@@H]2CCCC[C@@H]2N)nc1Nc1cccc(-n2nccn2)c1 [PRT062607]
drug sensitivity mutant vs wild type (average difference in AUC; top left quadrant of volcano plot) (NPM1:DNMT3A): PRT062607

CCOc1cc2ncc(C#N)c(Nc3ccc(F)c(Cl)c3)c2cc1NC(=O)/C=C/CN(C)C [Pelitinib]
drug sensitivity mutant vs wild type (average difference in AUC; top left quadrant of volcano plot) (FLT3_ITD): pelitinib | drug sensitivity mutant vs wild type (average difference in AUC; top left quadrant of volcano plot) (NPM1): Pelitinib | drug sensitivity mutant vs wild type (average difference in AUC; top left quadrant of volcano plot) (NPM1:FLT3_ITD): pelitinib

CC(C)(C)c1cc(NC(=O)Nc2ccc(-c3cn4c(n3)sc3cc(OCCN5CCOCC5)ccc34)cc2)no1 [Quizartinib]
drug sensitivity mutant vs wild type (average difference in AUC; top left quadrant of volcano plot) (NPM1): quizartinib | drug sensitivity mutant vs wild type (average difference in AUC; top left quadrant of volcano plot) (NPM1:DNMT3A): Quizartinib | drug sensitivity mutant vs wild type (average difference in AUC; top left quadrant of volcano plot) (NPM1:IDH2): quizartinib | drug sensitivity mutant vs wild type (average difference in AUC; top left quadrant of volcano plot) (NPM1:SRSF2): quizartinib

Cn1c(Nc2ccc(C(F)(F)F)cc2)nc2cc(Oc3ccnc(-c4ncc(C(F)(F)F)[nH]4)c3)ccc21 [RAF265, 1-methyl-5-((2-(5-(trifluoromethyl)-1H-imidazol-2-yl)pyridin-4-yl)oxy)-N-(4-(trifluoromethyl)phenyl)-1H-benzo[d]imidazol-2-amine]
drug sensitivity mutant vs wild type (average difference in AUC; top left quadrant of volcano plot) (BCOR): RAF265 | drug sensitivity mutant vs wild type (average difference in AUC; top left quadrant of volcano plot) (WT1): RAF265

CNC(=O)c1cc(Oc2ccc(NC(=O)Nc3ccc(Cl)c(C(F)(F)F)c3)c(F)c2)ccn1 [Regorafenib]
drug sensitivity mutant vs wild type (average difference in AUC; top left quadrant of volcano plot) (FLT3_ITD): regorafenib | drug sensitivity mutant vs wild type (average difference in AUC; top left quadrant of volcano plot) (NPM1): Regorafenib | drug sensitivity mutant vs wild type (average difference in AUC; top left quadrant of volcano plot) (NPM1:DNMT3A): Regorafenib | drug sensitivity mutant vs wild type (average difference in AUC; top left quadrant of volcano plot) (NPM1:FLT3_ITD): regorafenib | drug sensitivity mutant vs wild type (average difference in AUC; top left quadrant of volcano plot) (NPM1:FLT3_ITD:DNMT3A): regorafenib | drug sensitivity mutant vs wild type (average difference in AUC; top left quadrant of volcano plot) (NPM1:IDH2): regorafenib | drug sensitivity mutant vs wild type (average difference in AUC; top left quadrant of volcano plot) (NPM1:SRSF2): regorafenib | drug sensitivity mutant vs wild type (average difference in AUC; top left quadrant of volcano plot) (NPM1:TET2: DNMT3A): Regorafenib
